Measured values: patent US20260306488A1, “FUNCTIONAL PROTECTIVE AGENT FOR ORGAN OR TISSUE” (TOHOKU UNIVERSITY, priority 2023, published 2026)

Key:
[1] = tested on: diabetes model mouse (db/db mouse); assay: Liver tissue analysis by HE staining in diabetes model mouse; assay type: in vivo, mouse (BKS-db/db); conditions: diabetes model cGP group (cGP in diet) vs diabetes model normal diet group; after 6-week feeding; FIG. 4
Procedure: (§1) Next, in order to confirm that the present compound protects kidney function and liver function in a diabetes model, cGP was administered to a diabetes model mouse (db/db mouse) to analyze blood concentrations of two uremic substances (creatinine and phenyl sulfate), as well as a blood concentration of a factor leading to renal failure in a patient with type 1 diabetes (N6-acetyllysine [Ac6Lys]), and additionally, pathological tissues of liver and blood concentrations of three liver function markers (ALT, AST, and γGTP) and two lipids (total cholesterol and TG) were analyzed.
(§2) The analysis using a diabetes model mouse was performed according to the following procedures through:
[1] Wild-type mice (BKS-m+/m+ mice, purchased from Japan CLEA) having been fed a normal diet (CE-2, manufactured by Japan CLEA) were grouped into a wild-type normal diet group (n=5) to be fed the normal diet, and a wild-type cGP group (n=4) to be fed the normal diet containing cGP. Besides, diabetes model mice (BKS-db/db mice; purchased from Japan CLEAR) having been fed the normal diet were grouped into a diabetes model normal diet group (n=4) to be fed the normal diet, and a diabetes model cGP group (n=4) to be fed the normal diet containing cGP. […]

[2] = tested on: adenine-fed renal failure model mouse; assay: Plasma markers (creatinine, ALT, total cholesterol) in adenine-fed renal failure model mouse; assay type: in vivo, mouse (male C57BL/6); conditions: plasma samples after 2-week feeding
Procedure: (§3) In order to confirm that a present compound has an effect of protecting kidney function and liver function in a renal failure model, 2,5-diketopiperazine (cGP; see Table 1) encompassed in the present compound was used for performing analysis in which the cGP is administered to a model mouse with chronic renal failure induced by feeding adenine (hereinafter referred to as the “adenine-fed renal failure model mouse”) to analyze the blood concentration of a uremic substance (creatinine), that is, an indicator of kidney function, and a ratio of renal tubules, as well as to analyze blood concentrations of three liver function markers (ALT, AST, and γGTP) and two lipids (total cholesterol and TG). The adenine-fed renal failure model mouse is a mouse that develops kidney damage because fed adenine crystallizes as insoluble 2,8-dihydroxyadenine in the renal tubules (Cozzolino, M. et al. Kidney Int. 64, 441-450 (2003), Tamagaki, K. et al. Nephrol. Dial. Transplant 21, 651-659 (2006)).
(§4) The analysis using an adenine-fed renal failure model mouse was performed according to the following procedures through:
(§5) [1] 8-Week old male C57BL/6 mice (purchased from Japan CLEA) were grouped into a normal diet group (n=6) to be fed a normal diet (CE-2, manufactured by Japan CLEA), and an adenine-fed group (n=12) to be fed the normal diet containing 0.2% adenine (manufactured by Wako).
[2] After feeding the mice for 6 weeks, the adenine-fed group was grouped into an adenine-fed control group (n=6) to be fed the normal diet, and an adenine-fed cGP group (n=6) to be fed the normal diet containing cGP. The normal diet containing cGP was prepared by mixing cGP (manufactured by Bachem) with the normal diet to a final concentration of 0.0025%.
[3] After feeding the mice for 2 weeks, blood samples were harvested from each of the three groups (the normal diet group, the adenine-fed control group, and the adenine-fed cGP group) to prepare plasma samples (referred to as “plasma samples after 2-week feeding”) according to a usual method.
[4] […]

[3] = tested on: adenine-fed renal failure model mouse; assay: Kidney tissue analysis by Masson's Trichrome Staining in adenine-fed renal failure model mouse (ratio of renal tubules); assay type: in vivo, mouse (male C57BL/6); conditions: adenine-fed cGP group (0.0025% cGP in diet) vs adenine-fed control group; FIG. 2A, Dunnett's test p<0.01; FIG. 2 legend says after 2-week feeding, method says tissue harvested at 3 weeks
Procedure: as §3, §4, §5
[2] […]

[4] = tested on: diabetes model mouse (db/db mouse); assay: Plasma uremic substances (m1A and TMAO) in diabetes model mouse; assay type: in vivo, mouse (BKS-db/db); conditions: diabetes model cGP group (cGP in diet) vs diabetes model normal diet group, after 5-week feeding, Unpaired t-test p<0.01
Procedure: Next, in order to confirm that the present compound reduces chronic inflammation and resulting cellular damage, and prevents vascular complication in a diabetes model, cGP was administered to a diabetes model mouse (db/db mouse) to analyze blood concentrations of two uremic substances (1-methyladenosine [m1A] and trimethylamine-N-oxide [TMAO]).
as §2
[1] Diabetes model mice (BKS-db/db mice, purchased from Japan CLEA) having been fed a normal diet (CE-2, manufactured by Japan CLEA) were grouped into a diabetes model normal diet group (n=10) to be fed the normal diet, and a diabetes model cGP group (n=10) to be fed the normal diet containing cGP.
[2] After feeding the mice for 5 weeks, blood samples were harvested from the above two groups (the diabetes model normal diet group, and the diabetes model cGP group), and plasma samples were prepared according to a usual method.
[3] The thus prepared plasma samples were used to measure blood concentrations of two uremic substances (m1A and TMAO) by mass spectrometry using LC-MS/MS (manufactured by Shimadzu Corporation) (see FIG. 7).

[5] = tested on: diabetes model mouse (db/db mouse); assay: Plasma creatinine, phenyl sulfate and Ac6Lys in diabetes model mouse; assay type: in vivo, mouse (BKS-db/db)
Procedure: as §1, §2
[1] Wild-type mice (BKS-m+/m+ mice, purchased from Japan CLEA) having been fed a normal diet (CE-2, manufactured by Japan CLEA) were grouped into a wild-type normal diet group (n=5) to be fed the normal diet, and a wild-type cGP group (n=4) to be fed the normal diet containing cGP. Besides, diabetes model mice (BKS-db/db mice; purchased from Japan CLEAR) having been fed the normal diet were grouped into a diabetes model normal diet group (n=4) to be fed the normal diet, and a diabetes model cGP group (n=4) to be fed the normal diet containing cGP. Blood samples were harvested from the diabetes model cGP group, and plasma samples (referred to as the “plasma samples after 0-week feeding”) were prepared according to a usual method.
[2] After feeding the mice for 6 weeks, blood samples were harvested from the above four groups (the wild-type normal diet group, the wild-type cGP group, the diabetes model normal diet group, and the diabetes model cGP group), plasma samples (referred to as the “plasma samples after 6-week feeding”) were prepared according to a usual method, and then, liver tissues were harvested, fixed in 10% neutral-buffered formalin, and embedded in paraffin, and the resultant paraffin-embedded liver tissues were sliced to prepare liver tissue sections.
[3] The thus obtained “plasma samples after 0-week feeding” and “plasma samples after 6-week feeding” were used to measure blood concentrations of the three substances (creatinine, phenyl sulfate, and Ac6Lys) (see FIGS. 5 and 6), and blood concentrations of three liver function markers (ALT, AST, and γGTP) and two lipids (total cholesterol and TG) by mass spectrometry using LC-MS/MS (manufactured by Shimadzu Corporation). Besides, the liver tissue sections prepared as described above were used to perform analysis by Hematoxylin and Eosin (HE) staining method according to a usual method (see FIG. 4).

In the case of O=C1NCC(=O)N2CCCC12 (centres unmarked) [cGP, cyclo-glycyl-proline], the “fat droplets in the liver” value [1] is reported as “reduced”, the “ALT concentration in plasma” value ([2]; adenine-fed cGP group (0.0025% cGP in diet) vs adenine-fed control group, FIG. 3A, Dunnett's test p<0.05) is reported as “significantly decreased” and the “total cholesterol concentration in plasma” value ([2]; adenine-fed cGP group (0.0025% cGP in diet) vs adenine-fed control group, FIG. 3B, Dunnett's test p<0.05) is reported as “significantly decreased”. For the same molecule, the “creatinine concentration in plasma” value ([2]; adenine-fed cGP group (normal diet containing 0.0025% cGP) vs adenine-fed control group, FIG. 1, Dunnett's test) was “significantly decreased”, the “ratio of renal tubules in the renal cortex” value [3] was “significantly increased” and the “m1A (1-methyladenosine) concentration in plasma” value ([4]; FIG. 7A) was “significantly reduced”. The “TMAO (trimethylamine-N-oxide) concentration in plasma” value ([4]; FIG. 7B) was “significantly reduced”, the “creatinine concentration in plasma” value ([5]; diabetes model cGP group (cGP in diet) vs diabetes model normal diet group, plasma samples after 6-week feeding, FIG. 5, Dunnett's test) was “significantly decreased” and the “blood concentration of creatinine, week 6 vs week 0” value ([5]; diabetes model cGP group (cGP in diet), week 6 after feeding compared to week 0, FIG. 6A, Paired t-test p<0.05) was “significantly lower”. For the same molecule, the “blood concentration of phenyl sulfate, week 6 vs week 0” value ([5]; diabetes model cGP group (cGP in diet), week 6 after feeding compared to week 0, FIG. 6B, Paired t-test p<0.05) was “significantly lower” and the “blood concentration of N6-acetyllysine (Ac6Lys), week 6 vs week 0” value ([5]; diabetes model cGP group (cGP in diet), week 6 after feeding compared to week 0, FIG. 6C, Paired t-test p<0.05) was “significantly lower”.
